Source: patent US20140329682A1, “METHOD OF CONTROLLING WEED IN A SUGAR CANE FIELD” (SUMITOMO CHEMICAL COMPANY, LIMITED, priority 2011, published 2014)

Assays:
sugar cane [1] = assay: Phytotoxicity on sugar cane, spray above weed one week before planting (Example 5)
Protocol: (§1) The “phytotoxicity” evaluated herein is the damage characteristic determined to be due to a treated compound, and is clearly discriminated from the damage characteristic caused by a harmful animal or plant disease.
(§2) A soil is packed into a plastic pot, and seeds of Amaranthus retroflexus are seeded thereon. Thereafter, the pot is placed in a greenhouse, and the weed is grown.
(§3) A 30 cm to 40 cm stem cutting of sugar cane is placed on a wet soil, and germination is stimulated. The stem cutting from which a bud has been grown to about 1 cm is selected, and the length of the stem cutting is adjusted to be 3 cm so that the stem cutting has one node.
(§4) The pot for a test is placed in a greenhouse.

Amaranthus retroflexus [2] = assay: Herbicidal activity, soil surface spray, insecticide-treated stem cutting (Example 6); format: in vivo; conditions: 3 cm stem cutting treated with clothianidin, thiamethoxiam, imidacloprid, dinotefuran, nitenpyram, acetamiprid or thiacloprid, four weeks after treatment
sugar cane [3] = assay: Phytotoxicity on sugar cane, soil surface spray, insecticide-treated stem cutting (Example 6)
Source text: as §1
A 30 cm to 40 cm stem cutting of sugar cane is placed on a wet soil, and germination is stimulated. The stem cutting from which a bud has grown to about 1 cm is selected, and the length of the stem cutting is adjusted to be 3 cm so that the stem cutting has one node. Clothianidin, thiamethoxiam, imidacloprid, dinotefuran, nitenpyram, acetamiprid or thiacloprid is adhered to the stem cutting. A soil is packed into a plastic pot, and seeds of Amaranthus retroflexus are seeded thereon. The stem cutting of sugar cane treated with clothianidin, thiamethoxiam, imidacloprid, dinotefuran, nitenpyram, acetamiprid or thiacloprid is planted in the soil packed into the pot at a depth of 2 cm. […] Thereafter, the pot for a test is placed in a greenhouse.

Amaranthus retroflexus [4] = assay: Herbicidal activity, spray above weed before planting, insecticide-treated stem cutting (Example 7); format: in vivo; conditions: sprayed above weed, 3 cm stem cutting treated with clothianidin, thiamethoxiam, imidacloprid, dinotefuran, nitenpyram, acetamiprid or thiacloprid planted one week after treatment, four weeks after treatment
sugar cane [5] = assay: Phytotoxicity on sugar cane, spray above weed before planting, insecticide-treated stem cutting (Example 7)
Protocol: as §1, §2
as §3, with “has” for “has been”, “node. Clothianidin, thiamethoxiam, imidacloprid, dinotefuran, nitenpyram, acetamiprid or thiacloprid is adhered to the stem cutting.” for “node.”
as §4

Amaranthus retroflexus [6] = assay: Herbicidal activity, soil surface spray, strobilurin-treated stem cutting (Example 8); format: in vivo; conditions: 3 cm stem cutting treated with kresoxim-methyl, azoxystrobin or another listed strobilurin fungicide, four weeks after treatment
sugar cane [7] = assay: Phytotoxicity on sugar cane, soil surface spray, strobilurin-treated stem cutting (Example 8); conditions: Example 8; 3 cm stem cutting treated with kresoxim-methyl, azoxystrobin or another listed strobilurin fungicide; soil surface spray; four weeks after treatment
Source text: as §1
A 30 cm to 40 cm stem cutting of sugar cane is placed on a wet soil, and germination is stimulated. The stem cutting from which a bud has grown to about 1 cm is selected, and the length of the stem cutting is adjusted to be 3 cm so that the stem cutting has one node. Kresoxim-methyl, azoxystrobin, trifloxystrobin, fluoxastrobin, picoxystrobin, pyraclostrobin, dimoxystrobin, pyribencarb, metominostrobin, orysastrobin, enestrobin, pyraoxystrobin or pyrametostrobin is adhered to the stem cutting. A soil is packed into a plastic pot, and seeds of Amaranthus retroflexus are seeded thereon. The stem cutting of sugar cane treated with kresoxim-methyl, azoxystrobin, trifloxystrobin, fluoxastrobin, picoxystrobin, pyraclostrobin, dimoxystrobin, pyribencarb, metominostrobin, orysastrobin, enestrobin, pyraoxystrobin or pyrametostrobin is planted in the soil packed into the pot at a depth of 2 cm. […] Thereafter, the pot for a test is placed in a greenhouse.

Amaranthus retroflexus [8] = assay: Herbicidal activity, spray above weed before planting, strobilurin-treated stem cutting (Example 9); format: in vivo; conditions: sprayed above weed, 3 cm stem cutting treated with kresoxim-methyl, azoxystrobin or another listed strobilurin fungicide planted one week after treatment, four weeks after treatment
sugar cane [9] = assay: Phytotoxicity on sugar cane, spray above weed before planting, strobilurin-treated stem cutting (Example 9); conditions: Example 9; sprayed above weed; 3 cm stem cutting treated with kresoxim-methyl, azoxystrobin or another listed strobilurin fungicide planted one week after treatment; four weeks after treatment
Protocol: as §1, §2
as §3, with “has” for “has been”, “node. Kresoxim-methyl, azoxystrobin, trifloxystrobin, fluoxastrobin, picoxystrobin, pyraclostrobin, dimoxystrobin, pyribencarb, metominostrobin, orysastrobin, enestrobin, pyraoxystrobin or pyrametostrobin is adhered to the stem cutting.” for “node.”
as §4

Amaranthus retroflexus [10] = assay: Herbicidal activity, spray above weed before planting, azole-fungicide-treated stem cutting (Example 11); format: in vivo; conditions: sprayed above weed, 3 cm stem cutting treated with azaconazole, bitertanol or another listed azole-type fungicide planted one week after treatment, four weeks after treatment
sugar cane [11] = assay: Phytotoxicity on sugar cane, spray above weed before planting, azole-fungicide-treated stem cutting (Example 11)
Protocol: as §1
A soil is packed into a plastic pat, and seeds of Amaranthus retroflexus are seeded thereon. Thereafter, the pot is placed in a greenhouse, and the weed is grown.
A 30 cm to 40 cm stem cutting of sugar cane is placed on a wet soil, and germination is stimulated. The stem cutting from which a bud has grown to about 1 cm is selected, and the length of the stem cutting is adjusted to be 3 cm so that the stem cutting has one node. Azaconazole, bitertanol, bromoconazole, cyproconazole, difenoconazole, diniconazole, epoxyconazole, fenbuconazole, fluquinconazole, flusilazole, flutriafol, hexaconazole, imibenconazole, ipconazole, metconazole, myclobutanil, penconazole, propiconazole, prothioconazole, simeconazole, tebuconazole, tetraconazole, triadimenol, triticonazole, fenarimol, nuarimol, pyrifenox, imazalil, oxpoconazole fumarate, pefurazoate, procloraz or triflumizole is adhered to the stem cutting.
as §4

sugar cane [12] = assay: Phytotoxicity on sugar cane, spray above weed before planting, metalaxyl-treated stem cutting (Example 13)
Protocol: as §1
A soil is packed into a plastic pot, and seeds of Amaranthus retroflexus are seeded thereon. Thereafter, a pot is placed in a greenhouse, and the weed is grown.
as §3, with “has” for “has been”, “node. Metalaxyl or metalaxyl-M is adhered to the stem cutting.” for “node.”
as §4

[13] = Example 5, sprayed above weed three weeks after seeding, 3 cm stem cutting planted one week after treatment, four weeks after treatment
[14] = Example 6, 3 cm stem cutting treated with clothianidin, thiamethoxiam, imidacloprid, dinotefuran, nitenpyram, acetamiprid or thiacloprid, soil surface spray, four weeks after treatment
[15] = Example 7, sprayed above weed, 3 cm stem cutting treated with clothianidin, thiamethoxiam, imidacloprid, dinotefuran, nitenpyram, acetamiprid or thiacloprid planted one week after treatment, four weeks after treatment
[16] = Example 11, sprayed above weed, 3 cm stem cutting treated with azaconazole, bitertanol or another listed azole-type fungicide planted one week after treatment, four weeks after treatment
[17] = Example 13, sprayed above weed, 3 cm stem cutting treated with metalaxyl or metalaxyl-M planted one week after treatment, four weeks after treatment

SMILES | phytotoxicity (sugar cane [1]; [13]) | herbicidal activity against Amaranthus retroflexus (Amaranthus retroflexus [2]) | phytotoxicity (sugar cane [3]; [14]) | herbicidal activity against Amaranthus retroflexus (Amaranthus retroflexus [4]) | phytotoxicity (sugar cane [5]; [15]) | herbicidal activity against Amaranthus retroflexus (Amaranthus retroflexus [6]) | phytotoxicity (sugar cane [7]) | herbicidal activity against Amaranthus retroflexus (Amaranthus retroflexus [8]) | phytotoxicity (sugar cane [9]) | herbicidal activity against Amaranthus retroflexus (Amaranthus retroflexus [10]) | phytotoxicity (sugar cane [11]; [16]) | phytotoxicity (sugar cane [12]; [17]) | phytotoxicity (sugar cane [1]; in vivo) | phytotoxicity (sugar cane [3]; in vivo) | phytotoxicity (sugar cane [5]; in vivo) | phytotoxicity (sugar cane [11]; in vivo) | phytotoxicity (sugar cane [12]; in vivo)
C#CCN1C(=O)COc2cc(F)c(N3C(=O)C4=C(CCCC4)C3=O)cc21 [Flumioxazin, flumioxazin] | significant phytotoxicity on sugar cane is not found | the controlling effect on a weed can be confirmed | significant phytotoxicity on sugar cane is not observed | the controlling effect on a weed can be confirmed | significant phytotoxicity on sugar cane is not observed | the controlling effect on a weed can be confirmed | significant phytotoxicity on sugar cane is not observed | the controlling effect on a weed can be confirmed | significant phytotoxicity on sugar cane is not observed | the controlling effect on a weed can be confirmed | significant phytotoxicity on sugar cane is not observed | significant phytotoxicity on sugar cane is not observed | – | – | – | – | –
CC(C)N(C)S(=O)(=O)NC(=O)c1cc(-n2c(=O)cc(C(F)(F)F)n(C)c2=O)c(F)cc1Cl [Saflufenacil, saflufenacil] | significant phytotoxicity on sugar cane is not found | the controlling effect on a weed can be confirmed | significant phytotoxicity on sugar cane is not observed | the controlling effect on a weed can be confirmed | significant phytotoxicity on sugar cane is not observed | the controlling effect on a weed can be confirmed | significant phytotoxicity on sugar cane is not observed | the controlling effect on a weed can be confirmed | significant phytotoxicity on sugar cane is not observed | the controlling effect on a weed can be confirmed | significant phytotoxicity on sugar cane is not observed | significant phytotoxicity on sugar cane is not observed | – | – | – | – | –
C#CCN1C(=O)COc2cc(F)c(-n3c(=O)n(C)c(=S)n(C)c3=O)cc21 [compound of the formula (I)] | – | the controlling effect on a weed can be confirmed | – | the controlling effect on a weed can be confirmed | – | the controlling effect on a weed can be confirmed | significant phytotoxicity on sugar cane is not observed | the controlling effect on a weed can be confirmed | significant phytotoxicity on sugar cane is not observed | the controlling effect on a weed can be confirmed | – | – | significant phytotoxicity on sugar cane is not found | significant phytotoxicity on sugar cane is not observed | significant phytotoxicity on sugar cane is not observed | significant phytotoxicity on sugar cane is not observed | significant phytotoxicity on sugar cane is not observed
